Measured values reported in patent US20140212487A1, “SOLID DISPERSION FORMULATION OF AN ANTIVIRAL COMPOUND” (priority 2013, published 2014).
Like-named read-outs stand apart in the source and are kept apart here.

Assays:
[1] = Pharmacokinetics after oral administration of tablets in beagle dogs; assay type: in vivo; parameters: AUC0-24, mean (RSD) / F / AUC(0-t): dose or concentration left out as unconfirmed; settings: pentagastrin pretreatment
Description: A series of in vivo experiments were conducted to evaluate the potential benefit of the solid dispersion approach relative to conventional formulations, as well as to optimize the solid dispersion by identifying the most beneficial polymer type and relative polymer concentration within the dispersion.
Pentagastrin is a synthetic polypeptide that stimulates the secretion of gastric acid, pepsin, and intrinsic factor. […]

[2] = Chemical stability in the ethanolic feed solution
[3] = tested on: HCV; assay: Breakthrough (BT) rate of ledipasvir in combination with other therapeutic agents; assay type: in vivo, Hepatitis C virus
Description: Therefore, the 90 mg dose of ledipasvir may confer a greater antiviral coverage that prevents viral breakthrough.

[4] = clinical; settings: in vivo, 30 mg; for half-life: t1/2, conventional formulation, median; for AUC(0-inf): AUCinf; for AUC(0-inf) / AUC(0-t) / Cmax / Vd/F: conventional formulation; for AUC(0-t): AUClast; for Vd/F: Vz/F
[5] = tested on: HCV; assay: Antiviral response for dose selection of ledipasvir in HCV infected subjects; assay type: in vivo, Hepatitis C virus
Description: The maximum median HCV RNA log 10 reduction was 3 or greater for all cohorts dosed with >3 mg of ledipasvir. […] Therefore, 30 mg and 90 mg of ledipasvir were selected as the dose for the formulations described herein.

[6] = conventional formulation; for Clast, mean: 30 mg single dose
[7] = Aqueous solubility screening of ledipasvir in the presence of polymers; assay type: physicochemical
Description: Solubility screening experiments were performed for ledipasvir in the presence of a variety of polymers, including hydroxypropyl cellulose, hypromellose, povidone and copovidone. […] Hypromellose, povidone, and copovidone increased the solubility of ledipasvir. […] Thus, in one embodiment, the polymer is selected from hypromellose, povidone, and copovidone.

[8] = Solubility of ledipasvir in spray dry feed solvents; assay type: physicochemical; settings: organic solvent or mixture
Description: The feed solution was initially evaluated for appropriate solvent with regard to solubility, stability, and viscosity. […] Ethanolic and DCM-based feed stocks were assessed for preparation ease and spray dried at a range of inlet and outlet temperatures to assess the robustness of the spray dry process. Both solvents gave rapid dissolution of ledipasvir and copovidone.

[9] = po, Geometric Least Squares Mean (GLSM), fasted
[10] = po, Geometric Least Squares Mean (GLSM), fed
[11] = po, mean, 30 mg single dose, fasted
[12] = po, mean, 30 mg single dose, fed (high-fat meal)
[13] = 30 mg, high-fat meal versus fasted

Question: Which AUC(0-t) ([1]; dog, in vivo, read-out: AUC0-24, mean (RSD)) does the source give for `COC(=O)N[C@H](C(=O)N1CC2(CC2)C[C@H]1c1ncc(-c2ccc3c(c2)C(F)(F)c2cc(-c4ccc5nc([C@@H]6[C@H]7CC[C@H](C7)N6C(=O)[C@@H](NC(=O)OC)C(C)C)[nH]c5c4)ccc2-3)[nH]1)C(C)C` [Amorphous Free base] here?
Answer: The AUC(0-t) was 8.03 µM·h.

Question: And the Cmax ([1]; dog, in vivo, read-out: Cmax, mean (RSD))?
Answer: Its Cmax is 743 nM.

Question: What about the F [1] of the same molecule?
Answer: Its F is 71%.

Question: Which “chemical stability in the ethanolic feed solution” value [2] does the source give for `COC(=O)N[C@H](C(=O)N1CC2(CC2)C[C@H]1c1ncc(-c2ccc3c(c2)C(F)(F)c2cc(-c4ccc5nc([C@@H]6[C@H]7CC[C@H](C7)N6C(=O)[C@@H](NC(=O)OC)C(C)C)[nH]c5c4)ccc2-3)[nH]1)C(C)C` [Ledipasvir, (1-{3-[6-(9,9-difluoro-7-{2-[5-(2-methoxycarbonylamino-3-methyl-butyryl)-5-aza-spiro[2.4]hept-6-yl]-3H-imidazol-4-yl}-9H-fluoren-2-yl)-1H-benzoimidazol-2-yl]-2-aza-bicyclo[2.2.1]heptane-2-carbonyl}-2-methyl-propyl)-carbamic acid methyl ester] here?
Answer: Its value is “good chemical stability”.

Question: And the “breakthrough (BT) rate” value ([3]; 30 mg ledipasvir in combination with other therapeutic agents, 11/33)?
Answer: The value was 33%.

Question: And the “breakthrough (BT) rate” value ([3]; 90 mg ledipasvir in combination with other therapeutic agents, 9/74)?
Answer: Its value is 12%.

Question: What about the half-life ([4]; 30 mg single dose, fasted) of the same molecule?
Answer: Its half-life is 39.8 h.

Question: What about the half-life ([4]; 30 mg single dose, fed (high-fat meal)) of the same molecule?
Answer: The half-life was 36.8 h.

Question: What about the Tmax ([4]; po) of the same molecule?
Answer: Its Tmax is 6 h.

Question: What about the AUC(0-inf) [4, 9] of the same molecule?
Answer: Its AUC(0-inf) is 2060 ng·h/mL.

Question: What about the AUC(0-inf) [4, 10] of the same molecule?
Answer: The AUC(0-inf) was 1140 ng·h/mL.

Question: What about the AUC(0-inf) [4, 11] of the same molecule?
Answer: Its AUC(0-inf) is 2420 ng·h/mL.

Question: And the AUC(0-inf) [4, 12]?
Answer: Its AUC(0-inf) is 1180 ng·h/mL.

Question: What about the AUC(0-t) [4, 9] of the same molecule?
Answer: Its AUC(0-t) is 1720 ng·h/mL.

Question: And the AUC(0-t) [4, 10]?
Answer: Its AUC(0-t) is 978 ng·h/mL.

Question: And the AUC(0-t) [4, 11]?
Answer: The AUC(0-t) was 1990 ng·h/mL.

Question: And the AUC(0-t) [4, 12]?
Answer: The AUC(0-t) was 996 ng·h/mL.

Question: What about the Cmax [4, 9] of the same molecule?
Answer: Its Cmax is 65.3 ng/mL.

Question: What about the Cmax [4, 10] of the same molecule?
Answer: The Cmax was 35.9 ng/mL.

Question: What about the Cmax [4, 11] of the same molecule?
Answer: The Cmax was 73.1 ng/mL.

Question: And the Cmax [4, 12]?
Answer: The Cmax was 36.5 ng/mL.

Question: And the Vd/F [4, 11]?
Answer: The Vd/F was 877 L.

Question: And the Vd/F [4, 12]?
Answer: The Vd/F was 1390 L.

Question: And the “maximum median HCV RNA log 10 reduction” value ([5]; all cohorts dosed with >3 mg of ledipasvir)?
Answer: Its value is ≥ 3 log 10.

Question: What about the “fraction of maximal antiviral response (Emax PK/PD model)” value ([5]; exposures after 30 mg dose, genotype 1a HCV infected subjects) of the same molecule?
Answer: Its value is > 95%.

Question: What about the “Clast, mean” value ([6]; fasted) of the same molecule?
Answer: The value was 6.8 ng/mL.

Question: And the “Clast, mean” value ([6]; fed (high-fat meal))?
Answer: Its value is 3.1 ng/mL.

Question: What about the “decrease in mean AUCinf” value [6, 13] of the same molecule?
Answer: The value was “approximately 45%”.

Question: What about the “decrease in mean AUClast” value [6, 13] of the same molecule?
Answer: Its value is “approximately 45%”.

Question: What about the “decrease in mean Cmax” value [6, 13] of the same molecule?
Answer: Its value is “approximately 45%”.

Question: And the “increase of aqueous solubility of ledipasvir” value (shortened to “increase”) ([7]; pH 5, 0.1% w/w copovidone)?
Answer: The value was 10 fold.

Question: And the “increase” value ([7]; pH 5, 0.1% w/w hypromellose)?
Answer: The value was 3 fold.

Question: And the “increase” value ([7]; pH 5, 0.1% w/w povidone)?
Answer: The value was 4 fold.

Question: And the solubility ([8]; dichloromethane (DCM))?
Answer: Its solubility is > 500 mg/mL.

Question: And the solubility ([8]; ethanol)?
Answer: The solubility was > 500 mg/mL.

Question: And the solubility ([8]; methanol)?
Answer: Its solubility is > 500 mg/mL.

Question: For `COC(=O)N[C@H](C(=O)N1CC2(CC2)C[C@H]1c1ncc(-c2ccc3c(c2)C(F)(F)c2cc(-c4ccc5nc([C@@H]6[C@H]7CC[C@H](C7)N6C(=O)[C@@H](NC(=O)OC)C(C)C)[nH]c5c4)ccc2-3)[nH]1)C(C)C.O=C(O)C(O)C(O)C(=O)O` [Crystalline D-tartrate], which “AUC0-24, mean (RSD)” value [1] is on record?
Answer: The value was 7623 (44) nM * hr.

Question: What about the F [1] of the same molecule?
Answer: Its F is 67%.
